Measurements reported in patent US9101640B2, “Use of Danshensu, Notoginsenoside R1 or their combination in preparation of medicaments for preventing and treating diseases caused by microcirculation disorder” (Tasly Pharmaceutical Group Co., Ltd., priority 2009, dated 2015).
Entries after “also recorded” stand apart in the source; their conditions may differ.

Legend:
Format in all cases: in vivo
[1] = test system: leukocytes rolling along the mesenteric venular walls; experiment: Counting of leukocytes rolling along inner walls of venules after I/R; conditions: rat mesenteric I/R
Protocol: (§1) The rats were anesthetized by intraperitoneal injection of pentobarbital sodium (30 mg/kg body weight (BW)). PE venous cannulas (#3) were cannulated into the right jugular of the rats and detained. The abdomen of each rat was incised in a length of 20-30 mm along the midline. The ileum near the ileocecal junctions was gently taken out and unfolded onto the object stage mounted with glass slides. The unfolded mesenteries were continuously dripped with Krebs-Ringer buffering solution at 37° C. The microcirculatory dynamics of the mesenteries was observed under white light (12V, 100 W) using an inverted biomicroscope (Diaphot TMD-2S, Nikon, Tokyo) placed in the thermostat at 37° C. Observation sites were selected under 20× object lens, and a video recording system with a time-displaying function was used to record what had been observed on S-VHS tape and preserved. […] Normal saline was administrated at 20 min before ischemia until the end of the observation by continuously intravenous drip via jugular at a dosage of 5 mg/kg/h. PE cannulas were used to ligate non-circulatory mesenteric arteries and veins, so as to observe the arteries and veins for 10 min, and then the ligation was lifted. Time was adjusted to zero and the microcirculatory dynamics under the same visual field was continuously observed for 60 min.
(§2) DLA was administrated at 20 min before ischemia until the end of the observation by continuously intravenous drip via jugular at a dosage of 5 mg/kg/h.
(§3) R1 was administrated at 20 min before ischemia until the end of the observation by continuously intravenous drip via jugular at a dosage of 5 mg/kg/h.
(§4) The combination of DLA and R1 in a weight ratio of 4:1 was administrated at 20 min before ischemia until the end of the observation by continuously intravenous drip via jugular at a dosage of 5 mg/kg/h.
The combination of DLA and R1 in a weight ratio of 1:1 was administrated at 20 min before ischemia until the end of the observation by continuously intravenous drip via jugular at a dosage of 5 mg/kg/h. […]
(§5) Wherein, 6 rats in each group were taken out, these rats were used for observing the following aspects: the venular diameters; leukocytes rolling, adhesion, and emigration and DHR fluorescence intensities of the venular walls. […]
Microcirculatory dynamics was continuously recorded using an inverted biomicroscope […] recording system (CC-090, Flovel, Tokyo) and SIT fluorescent camera (C-2400-08, Hamamatsu Photonics, Hamamatsu).
The leukocytes roiling along the inner walls of the venules in a length of 200 μm within 10 s was counted from the replayed images at the following time points: before ischemia, and 1 min, 10 min, 20 min, 30 min, 40 min, 50 min and 60 min after the beginning of the reperfusion.

[2] = test system: plasma albumin leakage from the mesenteric venules; experiment: FITC-labeled albumin leakage from venules after I/R; conditions: rat mesenteric I/R; for inhibition of the plasma albumin leakage from the venules after reperfusion: post-administration, 5 mg/kg/h continuous i.v. drip from 20 min after ischemia (DLA: 10 min after I/R); for inhibition of the plasma albumin leakage from the venules after I/R: pre-administration, 5 mg/kg/h continuous i.v. drip from 20 min before ischemia
Protocol: as §1, §2, §3, §4
The combination of DLA and R1 in a weight ratio of 1:1 was administrated at 20 min before ischemia until the end of the observation by continuously intravenous drip via jugular at a dosage of 5 mg/kg/h.
The combination of DLA and R1 in a weight ratio of 1:4 was administrated at 20 min before ischemia until the end of the observation by continuously intravenous drip via jugular at a dosage of 5 mg/kg/h.
DLA was administrated at 10 min after I/R until the end of the observation by continuously intravenous drip via jugular at a dosage of 5 mg/kg/h. […]
as §5
Microcirculatory dynamics was continuously recorded using an inverted biomicroscope […] recording system (CC-090, Flovel, Tokyo) and SIT fluorescent camera (C-2400-08, Hamamatsu Photonics, Hamamatsu). […]

[3] = test system: mast cells in the mesenteric interstitial substance; experiment: Percentage of mast cells degranulation after I/R (toluidine blue); conditions: 60 min of reperfusion, rat
[4] = post-administration, 5 mg/kg/h continuous i.v. drip from 20 min after ischemia (DLA: 10 min after I/R)
[5] = pre-administration, 5 mg/kg/h continuous i.v. drip from 20 min before ischemia, 5 mg/kg
[6] = pre-administration, 5 mg/kg/h continuous i.v. drip from 20 min before ischemia

**Q.** With `O=C(O)C(O)Cc1ccc(O)c(O)c1` (stereo not drawn) [DLA, 3,4-dihydroxyphenyl lactic acid] as the compound, how does the “inhibition of leukocytes rolling along the mesenteric venular walls caused by I/R” value [1, 4] read?
**A.** The value was “has the same effects as those of the pre-administration”.

**Q.** What about the “inhibition of leukocytes rolling along the mesenteric venular walls caused by I/R” value [1, 5] of the same compound?
**A.** The value was “can apparently suppress; also recorded: can inhibit”.

**Q.** What about the “inhibition of the plasma albumin leakage from the venules after reperfusion” value [2] of the same compound?
**A.** The value was “had significant inhibitory effects; also recorded: has the same effects as those of the pre-administration”.

**Q.** And the “inhibition of the plasma albumin leakage from the venules after I/R” value [2]?
**A.** The value was “had significant inhibitory effects; also recorded: can inhibit”.

**Q.** And the “inhibition of the increase in the percentage of mast cells degranulation caused by I/R” value [3, 4]?
**A.** The value was “had no significant inhibitory effects; also recorded: without the significant inhibition”.

**Q.** And the “inhibition of the increase in the percentage of mast cells degranulation caused by I/R” value [3, 6]?
**A.** The value was “can significantly inhibit”.

**Q.** `CC(C)=CCC[C@](C)(O[C@@H]1O[C@H](CO)[C@@H](O)[C@H](O)[C@H]1O)[C@H]1CC[C@]2(C)[C@@H]1[C@H](O)C[C@@H]1[C@@]3(C)CC[C@H](O)C(C)(C)[C@@H]3[C@@H](O[C@@H]3O[C@H](CO)[C@@H](O)[C@H](O)[C@H]3O[C@@H]3OC[C@@H](O)[C@H](O)[C@H]3O)C[C@]12C` [R1, Notoginsenoside R1] was tested. Which “inhibition of leukocytes rolling along the mesenteric venular walls caused by I/R” value ([1]; post-administration, 5 mg/kg/h continuous i.v. drip from 20 min after ischemia (DLA: 10 min after I/R), 5 mg/kg) did it give?
**A.** Its value is “had no significant inhibitory effects; also recorded: have no significant inhibitory effects”.

**Q.** What about the “inhibition of leukocytes rolling along the mesenteric venular walls caused by I/R” value [1, 5] of the same compound?
**A.** Its value is “had no significant inhibitory effects; also recorded: have no significant inhibitory effects”.

**Q.** And the “inhibition of the plasma albumin leakage from the venules after reperfusion” value [2]?
**A.** Its value is “had significant inhibitory effects; also recorded: can inhibit”.

**Q.** What about the “inhibition of the plasma albumin leakage from the venules after I/R” value [2] of the same compound?
**A.** The value was “had significant inhibitory effects; also recorded: can inhibit”.

**Q.** And the “inhibition of the increase in the percentage of mast cells degranulation caused by I/R” value [3, 4]?
**A.** Its value is “can significantly inhibit”.

**Q.** What about the “inhibition of the increase in the percentage of mast cells degranulation caused by I/R” value [3, 6] of the same compound?
**A.** The value was “can significantly inhibit”.
